pIC50: −log10 of the molar value.
Target: human TRPA1 (Homo sapiens (Human), UniProt O75762)
Assay: Measurement of TRPA1 antagonist activity (2): as (1), different lot of human TRPA1 expression plasmid
Type: cell-based
Settings: 293T cells transfected with human TRPA1, allylisothiocyanate 20 μM stimulation, calcium fluorescence, read-out: hTRPA1 IC50
Experimental: Human embryonic kidney-derived 293T cells were cultured in Dulbecco's Modified Eagle Medium containing 10% fetal bovine serum, 10 unit penicillin, and 10 μg streptomycin, plated on a petri dish having a diameter of 10 cm at 3×10^6 cells, and cultured for 24 hr in a CO2 incubator. A reduced serum medium (manufactured by Invitrogen, trade name: OPTI-MEM, 600 μL), a gene transfer reagent (manufactured by Mirus Bio, trade name: Mirus TransIT-293, 18 μL), and human TRPA1 expression plasmid (6 μg) were mixed, the total amount of the mixture was added to the cells on the petri dish to allow for gene transfer. The cells were recovered about for 8 hr later, plated on a poly-D-lysine coated 384 well black/clear bottom plate at 12,000 cells/well, and cultured overnight.
Measurement of Intracellular Calcium Increase
The 384 well plate was recovered, and the medium was removed. A calcium-bonded fluorescent indicator (manufactured by Molecular Device, trade name: Calcium4 Assay Kit, 38 μL) dissolved in assay buffer (1×HBSS, 20 mM HEPES, pH 7.2) was added, and the cells were stained in a CO2 incubator for 1 hr. The cells were taken out at room temperature, stood for not less than 15 min, a test substance (10 μL) was added by a platereader FDSS7000 (Hamamatsu Photonics K.K.) equipped with a 384ch dispenser. After 10 min, allylisothiocyanate (12 μL) was further added at a final concentration of 20 μM, and changes in the relative fluorescence intensity after addition of allylisothiocyanate were measured for 5 min.
Test Substance Preparation
The test substance was dissolved in dimethyl sulfoxide and serially diluted with an assay buffer containing 0.1% bovine serum albumin (1×HBSS, 20 mM HEPES, pH 7.2) to a 4.8-fold concentration of the evaluation concentration. Allylisothiocyanate, which is a known TRPA1 activator, was dissolved in dimethyl sulfoxide to 100 mM, and further diluted 5-fold (100 μM) of the final concentration, like the test substance.
Calculation of Antagonist Activity
Under the test substance-free conditions, the maximum variation range of the fluorescence intensity before and after allylisothiocyanate stimulation was defined to be 100% activity rate, and the variation range before and after buffer stimulation was defined as 0% activity rate. The activity rate on addition of the test substance was determined, and the numerical value obtained by subtracting the activity rate from 100 was defined to be an inhibitory rate. IC50, which is the concentration of the test substance necessary for reaching the 50% inhibitory rate, was calculated from the sigmoid approximate curve by a spreadsheet software Excel-Fit.
Measurement of TRPA1 Antagonist Activity (2)
By a method similar to that in Experimental Example 1-1 except that the lot of human […] expression plasmid is different, the TRPA1 antagonist activity of the test substance was measured.

human TRPA1, sequence (O75762 whole entry): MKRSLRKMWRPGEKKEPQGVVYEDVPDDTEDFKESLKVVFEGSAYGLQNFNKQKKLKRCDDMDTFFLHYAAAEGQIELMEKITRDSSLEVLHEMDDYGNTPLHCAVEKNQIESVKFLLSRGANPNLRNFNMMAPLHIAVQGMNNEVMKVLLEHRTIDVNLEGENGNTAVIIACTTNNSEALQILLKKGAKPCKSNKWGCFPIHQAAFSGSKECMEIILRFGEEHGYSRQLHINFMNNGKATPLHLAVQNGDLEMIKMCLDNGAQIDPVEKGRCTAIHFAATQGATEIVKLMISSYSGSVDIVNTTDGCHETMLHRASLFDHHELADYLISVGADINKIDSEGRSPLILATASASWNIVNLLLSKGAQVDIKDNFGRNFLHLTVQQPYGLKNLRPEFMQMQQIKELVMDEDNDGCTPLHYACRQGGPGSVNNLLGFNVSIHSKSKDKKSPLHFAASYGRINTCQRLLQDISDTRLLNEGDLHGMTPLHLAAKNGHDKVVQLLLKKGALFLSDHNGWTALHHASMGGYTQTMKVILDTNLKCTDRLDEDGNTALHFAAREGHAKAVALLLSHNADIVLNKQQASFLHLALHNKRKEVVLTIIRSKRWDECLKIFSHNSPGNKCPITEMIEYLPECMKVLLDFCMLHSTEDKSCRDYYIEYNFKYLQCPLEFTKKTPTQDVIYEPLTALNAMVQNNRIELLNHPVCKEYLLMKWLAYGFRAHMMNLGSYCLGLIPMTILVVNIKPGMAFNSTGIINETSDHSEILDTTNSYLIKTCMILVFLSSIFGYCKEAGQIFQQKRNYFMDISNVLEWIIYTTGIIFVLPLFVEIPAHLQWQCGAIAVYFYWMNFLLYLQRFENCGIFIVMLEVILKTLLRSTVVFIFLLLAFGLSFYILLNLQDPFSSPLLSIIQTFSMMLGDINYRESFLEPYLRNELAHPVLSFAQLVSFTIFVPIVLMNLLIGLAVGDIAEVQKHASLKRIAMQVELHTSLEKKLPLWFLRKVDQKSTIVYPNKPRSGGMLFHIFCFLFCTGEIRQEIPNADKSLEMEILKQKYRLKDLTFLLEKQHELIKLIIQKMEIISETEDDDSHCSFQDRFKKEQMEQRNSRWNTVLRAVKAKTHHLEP

Structure (SMILES)	pIC50
O=C(NCc1cc(-c2ccc(C(F)(F)F)cn2)ncn1)[C@@H]1CCCN1S(=O)(=O)c1cc2cc(F)ccc2o1 [Example 400, (2S)-1-(5-fluorobenzofuran-2-yl)sulfonyl-N-[[6-[5-(trifluoromethyl)-2-pyridyl]pyrimidin-4-yl]methyl]pyrrolidine-2-carboxamide]	8.28
CC(C)(C)OC(=O)c1cc(CNC(=O)[C@@H]2CCCN2S(=O)(=O)c2cc3ccccc3o2)cc(-c2ccc(C(F)(F)F)cc2)c1 [Example 338, tert-butyl 3-[[[(2S)-1-(benzofuran-2-ylsulfonyl)pyrrolidine-2-carbonyl]amino]methyl]-5-[4-(trifluoromethyl)phenyl]-benzoate]	7.92
Nc1nc(CNC(=O)[C@@H]2CCCN2S(=O)(=O)c2cc3cc(F)ccc3o2)cc(-c2ccc(C(F)(F)F)cc2)n1 [Example 382, (2S)-N-[[2-amino-6-[4-(trifluoromethyl)phenyl]-pyrimidin-4-yl]methyl]-1-(5-fluorobenzofuran-2-yl)sulfonyl-pyrrolidine-2-carboxamide]	7.57
C[C@@]1(C(=O)NCc2cc(-c3ccc(C(F)(F)F)cn3)ccn2)CCCN1S(=O)(=O)c1cc2cc(F)ccc2o1 [Example 341, (2S)-1-(5-fluorobenzofuran-2-yl)sulfonyl-2-methyl-N-[[4-[5-(trifluoromethyl)-2-pyridyl]-2-pyridyl]methyl]pyrrolidine-2-carboxamide]	7.85
CN(C)c1nc(CNC(=O)[C@@H]2CCN2S(=O)(=O)c2cc3ccccc3o2)cc(-c2ccc(C(F)(F)F)nc2)n1 [Example 410, (2S)-1-(benzofuran-2-ylsulfonyl)-N-[[2-(dimethylamino)-6-[6-(trifluoromethyl)-3-pyridyl]pyrimidin-4-yl]methyl]azetidine-2-carboxamide]	7.42
CC(C)N(CC(=O)NCc1ccc(O)c(-c2ccc(C(F)(F)F)cn2)c1)S(=O)(=O)c1cc2cnccc2o1 [Example 374, 2-[furo[3,2-c]pyridin-2-ylsulfonyl(isopropyl)amino]-N-[[4-hydroxy-3-[5-(trifluoromethyl)-2-pyridyl]-phenyl]methyl]acetamide]	7.82
O=C(NCc1cc(-c2cnc(C(F)(F)F)nc2)ccn1)[C@@H]1CCN1S(=O)(=O)c1cc2cc(F)ccc2o1 [Example 389, (2S)-1-(5-fluorobenzofuran-2-yl)sulfonyl-N-[[4-[2-(trifluoromethyl)pyrimidin-5-yl]-2-pyridyl]methyl]azetidine-2-carboxamide]	7.96
CCN([C@@H](C)C(=O)NCc1cc(-c2ccc(C(F)(F)F)cc2)ncn1)S(=O)(=O)c1cc2cc(F)ccc2o1 [Example 422, (2S)-2-[ethyl-(5-fluorobenzofuran-2-yl)sulfonyl-amino]-N-[[6-[4-(trifluoromethyl)phenyl]pyrimidin-4-yl]methyl]propanamide]	8.52
CN(CC(=O)NCc1cc(-c2ccc(C(F)(F)F)cc2)ncn1)S(=O)(=O)c1cc2cc(F)ccc2o1 [Example 344, 2-[(5-fluorobenzofuran-2-yl)sulfonyl-methyl-amino]-N-[[6-[4-(trifluoromethyl)-phenyl]pyrimidin-4-yl]methyl]acetamide]	8.48
CC(C)N(CC(=O)NCc1cc(-c2ccc(C(F)(F)F)cn2)ccn1)S(=O)(=O)c1cc2cc(F)ccc2o1 [Example 348, 2-[(5-fluorobenzofuran-2-yl)sulfonyl-isopropyl-amino]-N-[[4-[5-(trifluoromethyl)-2-pyridyl]-2-pyridyl]methyl]acetamide]	7.80
O=C(NCc1cc(-c2ccc(C(F)(F)F)cc2)ncn1)[C@@H]1CCN1S(=O)(=O)c1cc2ccccc2o1 [Example 386, (2S)-1-(benzofuran-2-ylsulfonyl)-N-[[6-[4-(trifluoromethyl)phenyl]-pyrimidin-4-yl]methyl]azetidine-2-carboxamide]	8.18
CCN(CC(=O)NCc1cc(-c2ccc(C(F)(F)F)cc2)ncn1)S(=O)(=O)c1cc2cc(F)ccc2o1 [Example 419, 2-[ethyl-(5-fluorobenzofuran-2-yl)sulfonyl-amino]-N-[[6-[4-(trifluoromethyl)phenyl]pyrimidin-4-yl]methyl]acetamide]	8.39

From patent US10626112B2, “Heterocyclic sulfonamide derivative and medicine comprising same” (EA PHARMA CO., LTD., priority 2014, dated 2020)
